According to patent publication US8362000B2, “Azetidinyl diamides as monoacylglycerol lipase inhibitors” (Janssen Pharmaceutica NV, priority 2009, dated 2013):
Changes are numbered by the printed parent chain. Like-named read-outs stand apart in the source and are kept apart here.

What was measured:
MGL = molecular target: T1, MGL (Rattus norvegicus, UniProt Q8R431); test: 2-AG accumulation assay in rat brain homogenate; format: biochemical; conditions: rat brain homogenate, 2-AG accumulation as percent of vehicle; for 2-AG accumulation, % of vehicle control at 1 µM: compound 1 μM, read-out: Rat Brain 2AG % VehCntrl (%) @ 1 μM; for 2-AG accumulation, % of vehicle control at 10 µM: compound 10 μM, read-out: Rat Brain 2AG % VehCntrl (%) @ 10 μM
T1 construct: one g rat brain was homogenized using a Polytron homogenizer; from tissue; host or cells: rat brain homogenate
T1 sequence (Q8R431 1-303): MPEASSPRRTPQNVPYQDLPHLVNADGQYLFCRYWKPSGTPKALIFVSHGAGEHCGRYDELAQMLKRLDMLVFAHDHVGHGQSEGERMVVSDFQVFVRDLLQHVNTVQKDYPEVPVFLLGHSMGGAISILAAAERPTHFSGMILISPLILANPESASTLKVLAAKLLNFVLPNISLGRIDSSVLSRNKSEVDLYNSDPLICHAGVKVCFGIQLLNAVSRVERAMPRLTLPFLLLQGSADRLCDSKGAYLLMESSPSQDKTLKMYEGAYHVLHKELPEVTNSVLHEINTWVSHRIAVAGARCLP

[1] = molecular target: T2, purified wild type MGL (wt-MGLL 6H-11-313) (Homo sapiens, UniProt Q99685)
T2 sequence (Q99685 1-303): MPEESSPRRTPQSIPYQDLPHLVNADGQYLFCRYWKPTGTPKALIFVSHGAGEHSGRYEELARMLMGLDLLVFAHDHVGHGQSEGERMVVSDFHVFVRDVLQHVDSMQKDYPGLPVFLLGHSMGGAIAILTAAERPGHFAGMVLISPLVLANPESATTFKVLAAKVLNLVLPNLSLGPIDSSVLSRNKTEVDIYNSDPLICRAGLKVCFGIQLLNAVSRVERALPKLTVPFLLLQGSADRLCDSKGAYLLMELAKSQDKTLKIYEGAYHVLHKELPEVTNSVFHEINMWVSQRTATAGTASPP

mutant MGL = molecular target: T3, mutant MGL (Homo sapiens, UniProt Q99685, L169S/L176S); test: MGL ThermoFluor assay - mutant; format: binding
T3 sequence (Q99685 1-303 L169S/L176S): T2 sequence (Q99685 1-303) with L169S, L176S

[2] = ThermoFluor concentration-response, read-out: MGL mutant ThermoFluor Kd
[3] = ThermoFluor thermal stability binding assay, read-out: MGL mutant ThermoFluor Kd

| Structure (SMILES) | 2-AG accumulation, % of vehicle control at 1 µM (MGL) [%] | IC50 [1] [µM] | Kd (mutant MGL; [3]) [µM] | further results |
| --- | --- | --- | --- | --- |
| O=C(c1ccc2c(ccn2-c2ccc(F)cc2F)c1)N1CC(N2CCN(C(=O)c3ccc[nH]3)CC2)C1 [Cpd 1061, 1-(2,4-Difluorophenyl)-5-({3-[4-(1H-pyrrol-2-ylcarbonyl)piperazin-1-yl]azetidin-1-yl}carbonyl)-1H-indole] | 618 | 0.006 | – | – |
| O=C(c1ccc2c(c1)Sc1ccccc1O2)N1CC(N2CCN(C(=O)c3nccs3)CC2)C1 [Cpd 886] | 823 | < 0.005 | – | – |
| O=C(c1ccc(N2CCCCCC2)cc1)N1CC(N2CCN(C(=O)c3nccs3)CC2)C1 [Cpd 888] | 940 | < 0.005 | – | – |
| O=C(c1ccc(-c2ccc(F)c(Cl)c2)cc1)N1CC(N2CCN(C(=O)c3cscn3)CC2)C1 [Cpd 227, 1-{1-[(3′-Chloro-4′-fluorobiphenyl-4-yl)carbonyl]azetidin-3-yl}-4-(1,3-thiazol-4-ylcarbonyl)piperazine] | – | 0.007 | – | 2-AG accumulation, % of vehicle control at 10 µM (MGL): 938% |
| O=C(c1ccc2c(-c3ccccc3)ncnc2c1)N1CC(N2CCN(C(=O)c3nccs3)CC2)C1 [Cpd 1130] | 553 | 0.022 | – | – |
| O=C(c1ccc(-c2ccc(Cl)c(C(F)(F)F)c2)cc1)N1CC(N2CCN(C(=O)c3nccs3)CC2)C1 [Cpd 212, 1-(1-{[4′-Chloro-3′-(trifluoromethyl)biphenyl-4-yl]carbonyl}azetidin-3-yl)-4-(1,3-thiazol-2-ylcarbonyl)piperazine] | – | < 0.005 | – | 2-AG accumulation, % of vehicle control at 10 µM (MGL): 831% |
| O=C(c1cc(-c2ccccc2)n(-c2ccccc2)n1)N1CC(N2CCN(C(=O)c3nccs3)CC2)C1 [Cpd 1164] | 250 | 0.048 | – | – |
| O=C(c1ccc2c(c1)CCCN2C(=O)C1CCC1)N1CC(N2CCN(C(=O)c3nccs3)CC2)C1 [Cpd 364] | 581 | 0.21 | – | – |
| O=C(c1cccc(-c2ccccc2C(F)(F)F)c1)N1CC(N2CCN(C(=O)c3nccs3)CC2)C1 [Cpd 148, 1-(1,3-Thiazol-2-ylcarbonyl)-4-(1-{[2′-(trifluoromethyl)biphenyl-3-yl]carbonyl}azetidin-3-yl)piperazine] | – | < 0.005 | – | 2-AG accumulation, % of vehicle control at 10 µM (MGL): 744% |
| O=C(c1ccc2c(c1)CCN(Cc1ccc(C(F)(F)F)cc1)C2)N1CC(N2CCN(C(=O)c3nccs3)CC2)C1 [Cpd 880] | 945 | < 0.005 | – | – |
| Cc1c(C(=O)N2CC(N3CCN(C(=O)c4nccs4)CC3)C2)nn(-c2ccc(Cl)cc2Cl)c1-c1ccc(Cl)cc1 [Cpd 1103] | 698 | 0.013 | – | – |
| O=C(c1ccccc1)N1CCN(C2CN(C(=O)c3ccc(Oc4ccc(Cl)c(Cl)c4)cc3)C2)CC1 [Cpd 422, 1-(1-{[4-(3,4-Dichlorophenoxy)phenyl]carbonyl}azetidin-3-yl)-4-(phenylcarbonyl)piperazine] | 120 | – | – | Kd (mutant MGL; [2]): 0.0532 µM |
| O=C(c1ccccc1)N1CCN(C2CN(C(=O)c3ccc4c(ccn4-c4cccc(C(F)(F)F)c4)c3)C2)CC1 [Cpd 129, 1-[3-(Trifluoromethyl)phenyl]-5-({3-[4-(phenyl-carbonyl)piperazin-1-yl]azetidin-1-yl}carbonyl)-1H-indole] | 499 | – | 0.01 | – |
| O=C(c1ccccc1)N1CCN(C2CN(C(=O)c3ccc(COc4cccc(Cl)c4)cc3)C2)CC1 [Cpd 548] | 280 | – | – | Kd (mutant MGL; [2]): 0.062 µM |
| O=C(c1ccc2c(c1)CCCN2C(=O)C1CC1)N1CC(N2CCN(C(=O)c3nccs3)CC2)C1 [Cpd 359, 1-(Cyclopropylcarbonyl)-6-({3-[4-(1,3-thiazol-2-ylcarbon-yl)piperazin-1-yl]azetidin-1-yl}carbonyl)-1,2,3,4-tetrahydroquinoline] | 176 | – | 0.0829 | – |
| O=C(c1ccc(CNc2cccc(Cl)c2)cc1)N1CC(N2CCN(C(=O)c3cscn3)CC2)C1 [Cpd 969] | 515 | – | – | Kd (mutant MGL; [2]): 0.069 µM |

| Structure (SMILES) | 2-AG accumulation, % of vehicle control at 1 µM (MGL) [%] | IC50 [1] [µM] | Kd (mutant MGL; [3]) [µM] | further results |
| --- | --- | --- | --- | --- |
| O=C(c1ccccc1)N1CCN(C2CN(C(=O)c3ccc(N4CCCCCC4)cc3)C2)CC1 [Cpd 41, 1-[4-({3-[4-(Phenylcarbonyl)piperazin-1-yl]azetidin-1-yl}carbonyl)phenyl]azepane] | – | – | – | 2-AG accumulation, % of vehicle control at 10 µM (MGL): 544%; Kd (mutant MGL; [2]): 0.004 µM |
| O=C(c1ccc2c(cnn2-c2cccc(F)c2)c1)N1CC(N2CCN(C(=O)c3nccs3)CC2)C1 [Cpd 1110] | 807 | – | – | Kd (mutant MGL; ThermoFluor, compound concentration measured by qNMR, read-out: MGL mutant ThermoFluor qKd (μM) (using qNMR conc.)): 0.01 µM |
| O=C(c1ccc2c(c1)CCCN2C(=O)c1cccc(C(F)(F)F)c1)N1CC(N2CCN(C(=O)c3nccs3)CC2)C1 [Cpd 358, 6-(3-[4-(1,3-Thiazol-2-ylcarbonyl)piperazin-1-yl]-azetidin-1-yl)-carbonyl 1-[3-(trifluoromethyl)phenyl]carbonyl-1,2,3,4-tetrahydroquinoline] | 556 | – | 0.065 | – |
| O=C(c1ccccc1)N1CCN(C2CN(C(=O)c3ccc(-c4cccc(Cl)c4)cc3)C2)CC1 [Cpd 77, 1-{1-[(3′-Chlorobiphenyl-4-yl)carbonyl]azetidin-3-yl}-4-(phenylcarbonyl)piperazine] | – | – | – | 2-AG accumulation, % of vehicle control at 10 µM (MGL): 231%; Kd (mutant MGL; [2]): 0.00909 µM |
| O=C(c1ccccc1)N1CCN(C2CN(C(=O)c3ccc(-c4ccc(C(F)(F)F)cc4)s3)C2)CC1 [Cpd 347] | 125 | – | 0.125 | – |
| O=C(c1ccccc1)N1CCN(C2CN(C(=O)c3ccc(-c4ccc(F)c(Cl)c4)cc3Cl)C2)CC1 [Cpd 267, 1-{1-[(3,3′-Dichloro-4′-fluorobiphenyl-4-yl)carbonyl]azetidin-3-yl}-4-(phenylcarbonyl)piperazine] | 130 | – | 0.0125 | – |
| O=C(c1cc2c(C(F)(F)F)cccc2s1)N1CC(N2CCN(C(=O)c3nccs3)CC2)C1 [Cpd 327, 1-(1,3-Thiazol-2-ylcarbonyl)-4-(1-{[4-(trifluoromethyl)-1-benzothiophen-2-yl]carbonyl}azetidin-3-yl)piperazine] | 904 | – | 0.0137 | – |
| Cc1cc(C(=O)N2CC(N3CCN(C(=O)c4ccccc4)CC3)C2)ccc1-c1cccc(C(F)(F)F)c1 [Cpd 243, 1-(1-{[2-Methyl-3′-(trifluoromethyl)biphenyl-4-yl]carbonyl}azetidin-3-yl)-4-(phenylcarbonyl)piperazine] | 120 | – | 0.0167 | – |
| COc1cc(C(=O)N2CC(N3CCN(C(=O)c4ccccc4)CC3)C2)ccc1-c1ccc(Cl)c(C(F)(F)F)c1 [Cpd 264, 1-(1-{[4′-Chloro-2-methoxy-3′-(trifluoromethyl)biphenyl-4-yl]carbonyl}azetidin-3-yl)-4-(phenylcarbonyl)piperazine] | 172 | – | 0.01 | – |
| COc1cncc(Oc2ccc(C(=O)N3CC(N4CCN(C(=O)c5nccs5)CC4)C3)cc2)c1 [Cpd 904] | 392 | – | – | Kd (mutant MGL; [2]): 0.633 µM |
| Cc1cc(C(=O)N2CC(N3CCN(C(=O)c4cscn4)CC3)C2)ccc1-c1ccccc1 [Cpd 1406] | 169 | – | – | Kd (mutant MGL; [2]): 0.029 µM |
| O=C(c1ccc2c(c1)CCCN2Cc1ccccc1)N1CC(N2CCN(C(=O)c3nccs3)CC2)C1 [Cpd 370, 1-Benzyl-6-({3-[4-(1,3-thiazol-2-ylcarbonyl)piperazin-1-yl]azetidin-1-yl}carbonyl)-1,2,3,4-tetrahydroquinoline] | 888 | – | 0.001 | – |
| O=C(c1ccc2c(c1)CCCN2C(=O)C1CCCCC1)N1CC(N2CCN(C(=O)c3nccs3)CC2)C1 [Cpd 360] | 819 | – | 0.068 | – |
| Cc1oc(-c2ccccc2)cc1C(=O)N1CC(N2CCN(C(=O)c3nccs3)CC2)C1 [Cpd 1378] | 493 | – | 0.025 | – |
| O=C(c1ccccc1)N1CCN(C2CN(C(=O)c3ccc(SCc4cccc(Cl)c4)cc3)C2)CC1 [Cpd 410, 1-[1-({4-[(3-Chlorobenzyl)sulfanyl]phenyl}carbonyl)azetidi-3-yl]-4-(phenylcarbonyl)piperazine] | – | – | – | 2-AG accumulation, % of vehicle control at 10 µM (MGL): 720%; Kd (mutant MGL; [2]): 0.0333 µM |
| O=C(c1ccccc1)N1CCN(C2CN(C(=O)c3ccc(NCc4ccccc4)c(I)c3)C2)CC1 [Cpd 542] | 366 | – | – | Kd (mutant MGL; [2]): 0.014 µM |
